Source: patent publication US20180015100A1, “COMBINATION PRODUCTS FOR THE TREATMENT OF BACTERIAL INFECTIONS AND METHODS OF PRODUCING OR DOSING OF SAME” (priority 2016, published 2018)
In brackets after ≈: the same amount, converted by molar mass.

What was measured:
[1] = test system: Escherichia coli isolates with an ESBL-phenotype; experiment: In vitro MIC90 of a panel of approved antibiotics, US surveillance program; type: cell-based; conditions: for MIC90: Escherichia coli, E. coli (n = 124), ESBL-phenotype, read-out: MIC90
[2] = test system: 385 Escherichia coli and 126 Klebsiella pneumoniae isolates; experiment: MIC, MIC50 and MIC90 by reference broth microdilution against 511 UTI/bloodstream isolates (USA and Europe 2014-2015); type: cell-based; conditions: 511 isolates; for EUCAST % I: EUCAST 2016 criteria; for MIC90: read-out: MIC90
[3] = test system: Enterobacter cloacae isolates; experiment: MIC of cephalosporins alone or with clavulanate/tazobactam; type: cell-based; conditions: clavulanate 2:1, tazobactam 4 μg/mL
[4] = test system: Klebsiella oxytoca isolates; experiment: as above; type: cell-based; conditions: clavulanate 2:1, tazobactam 4 μg/mL
clinical = conditions: human, in vivo, po, 125 mg
Experimental: The twice daily divided dose of study drug was administered approximately 12 hours apart. All subjects randomized to placebo received placebo oral capsules that were identical to study drug capsules and given according to the same dosing schedule and same quantity of capsules as subjects randomized to receive ceftibuten and clavulanate concurrently. All SDs, as well as the first daily dose of the MD period on […] were given while the subject was fasted. […] In addition, blood samples for assessment of trough (pre-dose) concentrations were collected on day 7, day 8, day 9, and alternate days thereafter through study day 17. […] Peak concentration (Cmax), time at which Cmax was observed (Tmax), area under the concentration-time curve to infinity (AUCinf), percent coefficient of variation (% CV), elimination half-life (T1/2), apparent total clearance of the drug from plasma after oral administration (CL/F), and apparent volume of distribution during terminal phase after non-intravenous administration (Vz/F) were determined. […] Similar to above, six subjects were randomized to receive active drug and two were randomized to receive placebo. […] Safety, tolerability and PK were assessed as described above.

[5] = test system: Citrobacter freundii isolates; experiment: MIC of cephalosporins alone or with clavulanate/tazobactam; type: cell-based; conditions: clavulanate 2:1, tazobactam 4 μg/mL
[6] = test system: Klebsiella pneumoniae isolates; experiment: as above; type: cell-based; conditions: clavulanate 2:1, tazobactam 4 μg/mL
[7] = test system: Escherichia coli isolates; experiment: as above; type: cell-based; conditions: clavulanate 2:1, tazobactam 4 μg/mL
[8] = test system: Enterobacter aerogenes isolates; experiment: as above; type: cell-based; conditions: Klebsiella aerogenes, clavulanate 2:1, tazobactam 4 μg/mL
[9] = plasma; cited from earlier work
[10] = test system: beta-lactamase producing E. coli (CTX-M-55; CTX-M-15, TEM-OSBL); experiment: microbe, parasite or virus in culture; type: cell-based; conditions: Escherichia coli

Compound: NCC[C@H](O)C(=O)N[C@@H]1C[C@H](N)[C@@H](O[C@H]2O[C@H](CN)[C@@H](O)[C@H](O)[C@H]2O)[C@H](O)[C@H]1O[C@H]1O[C@H](CO)[C@@H](O)[C@H](N)[C@H]1O [Amikacin]
- MIC90 [1]: 8 µg/mL (≈ 13.7 µM)

Compound: C[C@H]1[C@H](NC(=O)/C(=N\OC(C)(C)C(=O)O)c2csc(N)n2)C(=O)N1S(=O)(=O)O [Aztreonam]
- MIC90 [1]: > 16 µg/mL
- MIC50 [2]: > 16 µg/mL
- EUCAST % I [2]: 13.9%
- MIC90 [2]: > 16 µg/mL

Compound: CC(C)(O/N=C(\C(=O)N[C@@H]1C(=O)N2C(C(=O)[O-])=C(C[n+]3ccccc3)CS[C@H]12)c1csc(N)n1)C(=O)O [Ceftazidime]
- MIC90 [1]: > 32 µg/mL
- MIC50 [2]: 16 µg/mL (≈ 29.3 µM)
- EUCAST % I [2]: 16.2%
- MIC90 [2]: > 32 µg/mL

Compound: CO/N=C(\C(=O)N[C@@H]1C(=O)N2C(C(=O)O)=C(CSc3nc(=O)c(=O)[nH]n3C)CS[C@H]12)c1csc(N)n1 [Ceftriaxone]
- MIC90 relative to CLSI/EUCAST breakpoint for susceptibility ([1]; E. coli isolates with ESBL-producing phenotype): above the breakpoint for susceptibility
- MIC90 [1]: > 8 µg/mL
- MIC50 [2]: > 8 µg/mL
- EUCAST % I [2]: 1.2%
- MIC90 [2]: > 8 µg/mL

Compound: O=C(O)[C@H]1/C(=C/CO)O[C@@H]2CC(=O)N21 [Clavulanate, clavulanic acid]
- MIC ([3]; AECL1065 (CTX-M-15)): 64 µg/mL
- MIC ([3]; AECL1067 (CTX-M-3)): 64 µg/mL
- MIC ([4]; AKOX1005 (SHV-2, TEM-1, DHA-1)): 32 µg/mL
- MIC ([4]; AKOX1009 (CTX-M-15)): 32 µg/mL
- Tmax (clinical; Tmax): 60 min
- half-life (clinical; T½): 46.5 min
- MIC ([5]; ACFR1034 (CTX-M-15, TEM-OSBL)): 32 µg/mL
- MIC ([5]; ACFR1035 (CTX-M-3, TEM-OSBL)): 32 µg/mL
- MIC ([6]; AKPN1159 (SHV-12)): 32 µg/mL
- MIC ([6]; AKPN1161 (SHV-7)): 16 µg/mL
- MIC ([6]; AKPN1162 (CTX-M-15, SHV-12)): 32 µg/mL
- MIC ([6]; AKPN1166 (CTX-M-14, SHV-12)): 32 µg/mL
- MIC ([6]; AKPN1167 (SHV-2)): 16 µg/mL
- MIC ([7]; AECO001 (no ESBL)): 32 µg/mL
- MIC ([7]; AECO1078 (CTX-M-15)): 32 µg/mL
- MIC ([7]; AECO1147 (CTX-M-15)): 32 µg/mL
- MIC ([7]; AECO1157 (CTX-M-15, TEM-OSBL)): 32 µg/mL
- MIC ([7]; AECO1159 (CTX-M-15)): 32 µg/mL
- MIC ([7]; AECO1169 (CTX-M-1, TEM-OSBL)): 32 µg/mL
- MIC ([7]; AECO1172 (CTX-M-14)): 32 µg/mL
- MIC ([8]; AEAE1027 (CTX-M-14)): 32 µg/mL
- MIC ([8]; AEAE1029 (CTX-M-15)): 32 µg/mL
- Elimination half-life [9]: approximately 1 h
- MIC [10]: > 32 µg/mL

Compound: C[C@@H](O)[C@H]1C(=O)N2C(C(=O)O)=C(S[C@@H]3CN[C@H](CNS(N)(=O)=O)C3)[C@H](C)[C@H]12 [Doripenem]
- MIC90 [1]: ≤ 0.06 µg/mL

Compound: C[C@@H](O)[C@H]1C(=O)N2C(C(=O)O)=C(SCCN=CN)C[C@H]12 [Imipenem]
- MIC90 [1]: 0.25 µg/mL (≈ 0.835 µM)
- MIC50 [2]: ≤ 0.12 µg/mL
- EUCAST % I [2]: 2.7%
- MIC90 [2]: 0.5 µg/mL (≈ 1.67 µM)

Compound: C[C@H]1COc2c(N3CCN(C)CC3)c(F)cc3c(=O)c(C(=O)O)cn1c23 [Levofloxacin]
- MIC90 [1]: > 4 µg/mL
